# Data taken from US5705649A, “Protein staining compositions and methods” (Promega Corporation, priority 1995, dated 1998).
# Tests used:
# [1] = test system: Promega Mid-Range Molecular Weight Standards; assay: Post-electrophoretic detection of protein using NBODY derivatives; conditions: crude dye solution in 5% acetic acid, 20% ethanol, one hour
# Procedure: Promega Mid-Range Molecular Weight Standards were diluted and heated as described in Example 27 to produce solutions containing 125, 25, 5 and 1 ng of protein per band in 10 microliters of solution. A 10% Tris Glycine, precast polyacrylamid gel from Novex Corp. (San Diego, Calif., USA, Cat. No. EC 6075.) was loaded with 10 microliters of the just described, diluted molecular weight standard solutions in lanes so that two lanes, each with the same diluted standard solution, were separated by a blank lane. The gel was developed using conditions recommended by the manufacturer and following development, the gel was cut in the blank lane. The segments were placed in 50 ml of 5% acetic acid, 20% ethanol. Six hundred microliters of the NBODY-C12 reaction mixture from Example 40 was added to the solution with one of the segments of a pair (of lanes with the same protein molecular weight standard solution) and three hundred microliters of the NBODY-C16 reaction mixture from Example 40 was added to the solution with the other segment of the same pair. After one hour of incubation, the gel segments were photographed on a transilluminator as described in example 27. Protein bands were detected in the lanes containing the 125 and 25 ng of protein per band using this method and the crude dye solutions from Example 40.
# [2] = test system: carbonic anhydrase; assay: In-gel staining with octyl and dodecyl derivatives of MDPF; conditions: 31 kdalton standard; stain stock in cathode buffer and wells
# Procedure: (§1) Two 10-well, 12% gels were made as described in Example 5 and were loaded with diluted Promega Mid Range Molecular Weight Standards to produce lanes containing 200, 100, 80, 60, 40, 20, 10, and 5 ng of protein per band following fractionation by electrophoresis. These protein levels were applied to the gels in 10 μl of loading buffer described in Example 5 and then 10 μl of a 1:100 dilution of the derivative stock solution (Example 33) into a solution of 20% glycerol, 1% sodium dodecyl sulfate was added to the wells. The gels were then run as described in Example 5 except that 0.5 ml of derivative stain stock was added to the cathode buffer in the gel and the Promega Green 1 dye was omitted from the solution. The gels were placed on a transilluminator following electrophoresis and were observed visually and photographed as described above. Staining of the protein bands was seen down to 80 ng of protein per band for the dodecyl derivative for all proteins and, for the 31 kdalton standard (carbonic anhydrase) down to 60 ng/band. Staining of the bands was seen to 60 ng/band for all proteins with the octyl derivative, with the carbonic anhydrase being detectable down to 40 ng per band. Therefore both stains can be used for in-gel staining of proteins.
# [3] = test system: Promega Mid Range Molecular Weight Standards; assay: as above; conditions: stain stock in cathode buffer and wells
# Procedure: as §1
# [4] = test system: Promega Mid Range Molecular Weight Standards; assay: Post-electrophoretic staining of gels with octyl and dodecyl derivatives of MDPF
# Procedure: A fifteen well, 12% gel was made as described in example 5 and was loaded with diluted Promega Mid Range Molecular Weight Standards to produce lanes containing samples having 200, 100, 80, 60, 40, 20 and 10 ng of protein per band. The gel was run as described in example 5 except that Promega Green 1 was not added to the cathode buffer. After electrophoresis, the gel was cut between lanes to produce gel segments containing fractionated protein samples at each of the concentrations listed above and these were placed in 30% methanol for 25-30 min at room temperature. The stock stain solutions of Example 33 were then diluted into distilled water at a concentration of 0.5% (v/v), and 50 ml of these solutions were used to stain the gels. After 1 hr incubation, the gels were visualized and photographed using a transilluminator. […] The gels were then placed in 5% methanol and allowed to destain overnight.
# After overnight destaining, the gel segments were again placed upon a transilluminator, visualized and photographed. […] Nonetheless, these derivatives can be used for sensitive post-electrophoretic staining of proteins in gels.
# [5] = test system: Promega Mid-Range Molecular Weight Standards; assay: Optimization of post-electrophoretic staining with dodecyl dansyl stain
# Procedure: In order to determine if alternative staining conditions would improve the detection of protein by fluorescent staining with the dodecyl dansyl stain, the following experiment was performed. Two 12% SDS-PAGE minigels from Bio-Rad Corporation were used to fractionate samples of diluted Promega Mid-Range Molecular Weight Standards which were loaded into alternate lanes of the gel to produce protein bands containing 25 and 5 ng of each protein per band in adjacent lanes. The gels were run as recommended by the manufacturer in Bio-Rad Miniprotean II electrophoresis units and sliced to produce two lane segments containing one lane each of the 25 and 5 ng sample lanes. One slice was placed in each of the following solutions (50 ml) followed by incubation of the segment in a second 50 ml of the solution containing 200 μl of dodecyl dansyl derivative solution (in 50 ml ethanol) of Example 28: distilled water; 1% acetic acid; 1% trichloroacetic acid; 5M sodium chloride; 0.5M Tris base; 0.5M ammonium bicarbonate, pH 5.0; 2M Tris pH8.0; 0.05M sodium hydroxide; and 10% ethanol. The gels were allowed to stain overnight at room temperature and then were observed on a transilluminator to allow visualization and photography of the fluorescently stained bands as described in Example 27. […] It was thought that this is due to an inability of the particular stain derivative used to fluoresce under the highly acidic condition produced in the trichloroacetic acid solution.
# In order to determine if the stain remained intact in these solutions and to standardize the conditions for the stains, the gel segments were then incubated in 50 ml of distilled water. After 1 hr, the segments were re-observed and re-photographed. […] Thus, staining sensitivity is dependent upon staining conditions and mildly acidic conditions appear to improve the sensitivity of staining.
# [6] = test system: Promega Mid Range Molecular Weight standard; assay: Optimization of staining with dodecyl dansyl stain, acetic acid/ethanol fixing and staining
# Procedure: Two 12% SDS-PAGE gels were run with diluted Promega Mid Range Molecular Weight standard to produce samples of proteins at 20, 10, and 5 ng of protein per band present in the gels. The gels were made as in Example 27 and proteins were fractionated on the gels in a BioRad Miniprotean II gel system as recommended by the manufacturer. The gels were cut to produce segments of gel containing three lanes of samples containing one lane each of the protein concentrations described above and placed for 15 min in 50 ml of one of the following fixative solutions: 30% ethanol, 20% acetic acid; 40% ethanol, 10% acetic acid; 40% ethanol, 20% acetic acid; 50% ethanol, 10% acetic acid; and 50% ethanol, 20% acetic acid. After the 15 min incubation, the gels were transferred into another 50 ml of the same fixative solution containing 50 μl of dodecyl dansyl stain solution (in 50 ml ethanol, Example 28). After 3 hrs., the segments were placed in 50 ml of 50 mM Tris-Cl, pH8.0, for 5 min and then were visualized on a transilluminator and photographed.
# After visualization, the segments were returned to their respective staining solutions and allowed to incubate overnight. The following morning, the segments were visualized and photographed directly on a transilluminator without prior incubation in a different solution.
# [7] = test system: Promega Mid-Range Molecular Weight Markers; assay: In-gel staining with dodecyl dansyl stain; conditions: 0.1% (v/v) stain in cathode buffer
# Procedure: In order to determine if in-gel staining with dodecyl dansyl stain could be performed, a gel containing the concentrations of reagents in the gel buffers and running buffers listed in Example 5 was made and run as described in Example 5 with two exceptions: 1) dodecyl dansyl stain (in 50 ml ethanol, Example 28) was added to the cathode buffer at 0.1% (v/v) instead of Promega Green 1; 2) Promega Mid-Range Molecular Weight markers were diluted into 1× loading buffer as described in Example 5 and were loaded on the gel to produce lanes containing each protein at concentrations from 1000 ng/lane to 3.1 ng/lane. Following electrophoresis, the gel was placed directly on a transilluminator and visualized and photographed as described above. […] Thus, staining while the gel is running can be performed with the dodecyl dansyl stain and is particularly favorable for protein species with low mobilities.
# [8] = test system: Promega Mid Range Molecular Weight Standards; assay: Post-electrophoretic detection of protein with purified dansyl derivatives
# Procedure: Samples of the eluates from purification of the derivatives were diluted 20-fold with ethanol and the absorption of the resulting solutions from 400 to 220 nm was measured. The absorption of the solutions at 328 nm was used as an indication of the concentration of the derivative in the staining studies in Example 27.
# Several SDS-PAGE minigels were made as described in Experiments with Gene Fusions, Silhavy, Berman, Enquist, supra, using the SDS concentrations described by the authors. Samples of Promega Mid Range Molecular Weight Standards were diluted into the loading solution described in the reference above to produce solutions containing 200, 100, 50, 25, and 12.5 ng of each protein species in 10 μl of solution. These solutions were loaded onto the gels and the samples were fractionated in the gels by application of 10 mA per gel until the tracking dye for the samples reached the bottom of the gel. The gels were then rinsed 1 min in distilled water, 15 min in 10% trichloracetic acid (w/v), and then for 15 min in 10% methanol (v/v). The gel segments, approximately 5×6 cm containing the fractionated standard, were then transferred to a 2% ethanol solution (50 ml) containing 0.05 OD328 -equivalent of each of the dansyl derivatives (see Example 26).
# The gel segments were returned to their respective staining solutions and were incubated overnight. The following morning, all of the gel segments were again visualized on the transilluminator and photographed as described above. […] In general, relatively equivalent staining of bands was obtained as determined by the strength of the fluorescent signal observed for the various fractionated species.
# [9] = test system: Promega Mid Range Molecular Weight Standards; assay: Detection of fractionated protein in SDS-PAGE gels using dansyl derivatives made in acetone
# Procedure: Several 15-well, SDS-PAGE minigels were poured as described in Example 27 and loaded with Promega Mid Range Molecular Weight Standards diluted as described in Example 27 to provide samples containing 1000, 300, 100, 50, 25, 12.5, and 6.25ng of each protein per band in separate lanes of the gel. The samples were fractionated by application of 20 mA per gel until the tracking dye reached the bottom of the gel. All the gels were placed in 10% trichloroacetic acid for 5 min and then incubated for 10 min in 10% (v/v) methanol. The gels were then incubated in a 10% methanol solution containing 2% (v/v) of the derivative eluates (dissolved in 50 ml ethanol) described in Example 28. The gels were transferred to a transilluminator and both visualized and photographed after two hours of staining. The following observations were made. Only the lanes containing 1000 and 300ng of protein per band were visible in the gel incubated with the n-butyl dansyl derivative. The lanes containing the 1000, 300, 100, 50, 25ng per band were visible in the gel incubated with the n-hexyl derivative as were some of the bands in the 12.5 ng per band lane.
# After overnight incubation in the stain solutions, the gels were re-observed and rephotographed.
# The gels were then placed in 1% acetic acid to remove any unbound stain and rephotographed after three hours of incubation in this solution at room temperature.
# [10] = after overnight destaining in 5% methanol
compound,measurement,setting,value
CCCCCCCCCCCCCCCCNC(=O)CCCCCNc1ccc([N+](=O)[O-])c2nonc12 [NBODY-C16],lowest protein per band detected,[1],25 ng
CCCCCCCCCCCCN=C1C(c2ccccc2)=COC1(OC)c1ccccc1 (stereo not drawn) [dodecyl MDPF derivative],lowest carbonic anhydrase per band stained,[2],60 ng
same,"lowest protein per band stained, all proteins",[3],80 ng
same,lowest protein per band stained,[4]; [10],20 ng
CCCCCCCCCCCCNS(=O)(=O)c1cccc2c(N(C)C)cccc12 [dodecyl dansyl derivative],staining,"[5]; all other staining solutions, overnight",No other staining solution allowed visualization of the fractionated protein species at this point
same,protein per band displayed as fluorescent bands,"[5]; stain in 0.5M ammonium bicarbonate, pH 5.0, overnight",25 ng
same,protein per band displayed as fluorescent bands,"[5]; stain in 1% acetic acid, overnight",25 ng
same,staining,"[5]; stain in 1% trichloroacetic acid, overnight",neither protein detection nor background staining
same,staining,"[5]; stain in 2M Tris pH 8.0, overnight",much weaker staining
same,staining after distilled water,"[5]; stained in 0.5M ammonium bicarbonate, pH 5.0, then 1 hr water",Staining was seen
same,staining after distilled water,"[5]; stained in 1% acetic acid, then 1 hr water",greater fluorescence
same,staining after distilled water,"[5]; stained in 1% trichloroacetic acid, then 1 hr water",greater fluorescence
same,staining after distilled water,"[5]; stained in 2M Tris pH 8.0, then 1 hr water",Staining was seen
same,visibility of protein bands,"[6]; 3 hrs, 30 or 40% ethanol and 10 or 20% acetic acid, 20, 10, 5 ng per band",faintly visible
same,level of protein per band detected,[6]; overnight staining in ethanol/acetic acid,≤ 5 ng
same,detection of protein species migrating more than halfway through the gel,[7],not easily detected
same,lowest protein per band seen (many of the heavier molecular weight species),[7],12.5 ng
same,staining quality compared to the amino or butyl derivatives,[8],much better stains compared to the amino or butyl derivatives
same,lowest protein amount with visible bands (several of the bands),[8]; 15 min staining,100 ng
same,visibility of protein bands,[8]; overnight staining,easily visible
same,lowest protein per band visible,"[9]; 2% (v/v) eluate in 10% methanol, two hours of staining",300 ng
same,protein per band at which most of the protein species were visible,"[9]; after 1% acetic acid, three hours",6.25 ng
same,protein per band at which at least some of the bands could be visualized,[9]; overnight staining,12.5 ng
CCCCCCCCN=C1C(c2ccccc2)=COC1(OC)c1ccccc1 (stereo not drawn) [octyl MDPF derivative],lowest carbonic anhydrase per band stained,[2],40 ng
same,"lowest protein per band stained, all proteins",[3],60 ng
same,lowest protein per band stained (most of the species),"[4]; 0.5% (v/v) stain in water, 1 hr",20 ng
same,retention of fluorescent staining,[4]; [10],almost all of the fluorescent staining of the octyl MDPF derivative stained gel had been lost
